In ChEMBL document CHEMBL1135126, “Identification of novel antifungal nonapeptides through the screening of combinatorial peptide libraries based on a hexapeptide motif” (Bioorg Med Chem Lett, 2002):
Converted amounts (≈) assume the structure as drawn. Where a SMILES comes first, the peptide text is derived from it. [ ]: non-standard residue; d: D form.

Key:
[1] = system: Candida albicans; experiment: Concentration that substantially inhibit growth of Candida albicans; assay type: functional, organism-based
[2] = system: Cryptococcus neoformans; experiment: Concentration that substantially inhibit the growth of Cryptococcus neoformans; assay type: functional

Row | SMILES | MIC [2] [µM] | IC50 [1] [µM]
1 | CC[C@H](C)[C@H](NC(=O)[C@@H](Cc1ccccc1)NC(=O)[C@@H](Cc1c[nH]c2ccccc12)NC(=O)[C@@H](N)CCCN=C(N)N)C(=O)N[C@H](Cc1ccccc1)C(=O)N[C@@H](Cc1c[nH]cn1)C(=O)N[C@@H](CCCCN)C(=O)N[C@@H](CCCCN)C(=O)NCC(N)=O [listing 1 of 2 here] | – | 2.77
2 | CC[C@H](C)[C@H](NC(=O)[C@@H](Cc1ccccc1)NC(=O)[C@@H](Cc1c[nH]c2ccccc12)NC(=O)[C@@H](N)CCCN=C(N)N)C(=O)N[C@H](Cc1ccccc1)C(=O)N[C@@H](Cc1c[nH]cn1)C(=O)N[C@@H](CCCCN)C(=O)N[C@@H](CCCCN)C(=O)NCC(N)=O [listing 2 of 2 here] | 2.51 (≈ 3.06 µg/mL) | –
3 | CC[C@H](C)[C@H](NC(=O)[C@@H](Cc1ccccc1)NC(=O)[C@@H](Cc1c[nH]c2ccccc12)NC(=O)[C@@H](N)CCCN=C(N)N)C(=O)N[C@H](Cc1ccccc1)C(=O)N[C@@H](Cc1c[nH]cn1)C(=O)N[C@@H](CCCCN)C(=O)N[C@@H](CCCCN)C(=O)N[C@@H](Cc1ccccc1)C(N)=O [listing 1 of 2 here] | – | > 7
4 | CC[C@H](C)[C@H](NC(=O)[C@@H](Cc1ccccc1)NC(=O)[C@@H](Cc1c[nH]c2ccccc12)NC(=O)[C@@H](N)CCCN=C(N)N)C(=O)N[C@H](Cc1ccccc1)C(=O)N[C@@H](Cc1c[nH]cn1)C(=O)N[C@@H](CCCCN)C(=O)N[C@@H](CCCCN)C(=O)N[C@@H](Cc1ccccc1)C(N)=O [listing 2 of 2 here] | > 7 | –
5 | CC[C@H](C)[C@H](NC(=O)[C@@H](Cc1ccccc1)NC(=O)[C@@H](Cc1c[nH]c2ccccc12)NC(=O)[C@@H](N)CCCN=C(N)N)C(=O)N[C@H](Cc1ccccc1)C(=O)N[C@@H](Cc1c[nH]cn1)C(=O)N[C@@H](CCCCN)C(=O)N[C@@H](CCCCN)C(=O)N[C@H](C(N)=O)C(C)C | 2.43 (≈ 3.06 µg/mL) | 3.08
6 | CC[C@H](C)[C@H](NC(=O)[C@@H](Cc1ccccc1)NC(=O)[C@@H](Cc1c[nH]c2ccccc12)NC(=O)[C@@H](N)CCCN=C(N)N)C(=O)N[C@H](Cc1ccccc1)C(=O)N[C@@H](Cc1c[nH]cn1)C(=O)N[C@@H](CCCCN)C(=O)N[C@@H](CCCCN)C(=O)N[C@@H](C)C(N)=O [listing 1 of 2 here] | – | 3.17
7 | CC[C@H](C)[C@H](NC(=O)[C@@H](Cc1ccccc1)NC(=O)[C@@H](Cc1c[nH]c2ccccc12)NC(=O)[C@@H](N)CCCN=C(N)N)C(=O)N[C@H](Cc1ccccc1)C(=O)N[C@@H](Cc1c[nH]cn1)C(=O)N[C@@H](CCCCN)C(=O)N[C@@H](CCCCN)C(=O)N1CCC[C@H]1C(N)=O | 2.43 (≈ 3.06 µg/mL) | 3.89
8 | CC[C@H](C)[C@H](NC(=O)[C@@H](Cc1ccccc1)NC(=O)[C@@H](Cc1c[nH]c2ccccc12)NC(=O)[C@@H](N)CCCN=C(N)N)C(=O)N[C@H](Cc1ccccc1)C(=O)N[C@@H](Cc1c[nH]cn1)C(=O)N[C@@H](CCCCN)C(=O)N[C@@H](CCCCN)C(=O)N[C@@H](CCC(=O)O)C(N)=O [listing 1 of 2 here] | – | 3.57
9 | CC[C@H](C)[C@H](NC(=O)[C@H](CCCCN)NC(=O)[C@H](CCCCN)NC(=O)[C@H](Cc1c[nH]cn1)NC(=O)[C@@H](Cc1ccccc1)NC(=O)[C@@H](NC(=O)[C@@H](Cc1ccccc1)NC(=O)[C@@H](Cc1c[nH]c2ccccc12)NC(=O)[C@@H](N)CCCN=C(N)N)[C@@H](C)CC)C(N)=O | 2.4 (≈ 3.06 µg/mL) | 1.65
10 | CC[C@H](C)[C@H](NC(=O)[C@@H](Cc1ccccc1)NC(=O)[C@@H](Cc1c[nH]c2ccccc12)NC(=O)[C@@H](N)CCCN=C(N)N)C(=O)N[C@H](Cc1ccccc1)C(=O)N[C@@H](Cc1c[nH]cn1)C(=O)N[C@@H](CCCCN)C(=O)N[C@@H](CCCN=C(N)N)C(=O)N[C@@H](Cc1c[nH]cn1)C(N)=O | 2.35 (≈ 3.12 µg/mL) | 4.11
11 | CC[C@H](C)[C@H](NC(=O)[C@@H](Cc1ccccc1)NC(=O)[C@@H](Cc1c[nH]c2ccccc12)NC(=O)[C@@H](N)CCCN=C(N)N)C(=O)N[C@H](Cc1ccccc1)C(=O)N[C@@H](Cc1c[nH]cn1)C(=O)N[C@@H](CCCCN)C(=O)N[C@@H](CCCCN)C(=O)N[C@@H](CC(=O)O)C(N)=O [listing 1 of 2 here] | – | 3.52
12 | CC[C@H](C)[C@H](NC(=O)[C@@H](Cc1ccccc1)NC(=O)[C@@H](Cc1c[nH]c2ccccc12)NC(=O)[C@@H](N)CCCN=C(N)N)C(=O)N[C@H](Cc1ccccc1)C(=O)N[C@@H](Cc1c[nH]cn1)C(=O)N[C@@H](CCCCN)C(=O)N[C@@H](CCCCN)C(=O)N[C@@H](Cc1c[nH]cn1)C(N)=O [listing 1 of 2 here] | – | 1.9
13 | CC[C@H](C)[C@H](NC(=O)[C@@H](Cc1ccccc1)NC(=O)[C@@H](Cc1c[nH]c2ccccc12)NC(=O)[C@@H](N)CCCN=C(N)N)C(=O)N[C@H](Cc1ccccc1)C(=O)N[C@@H](Cc1c[nH]cn1)C(=O)N[C@@H](CCCCN)C(=O)N[C@@H](CCCCN)C(=O)N[C@@H](Cc1c[nH]cn1)C(N)=O [listing 2 of 2 here] | 2.36 (≈ 3.06 µg/mL) | –
14 | NCCCC[C@H](NC(=O)[C@@H](Cc1ccccc1)NC(=O)[C@H](Cc1ccccc1)NC(=O)[C@@H](Cc1ccccc1)NC(=O)[C@@H](Cc1c[nH]c2ccccc12)NC(=O)[C@@H](N)Cc1c[nH]cn1)C(N)=O (H-H[dW][dF]F[dF]K-NH2) | 6.81 (≈ 6.2 µg/mL) | –
15 | CC[C@H](C)[C@H](NC(=O)[C@@H](Cc1ccccc1)NC(=O)[C@@H](Cc1c[nH]c2ccccc12)NC(=O)[C@@H](N)CCCN=C(N)N)C(=O)N[C@H](Cc1ccccc1)C(=O)N[C@@H](Cc1c[nH]cn1)C(N)=O (H-R[dW][dF]I[dF]H-NH2) | 6.86 (≈ 6.2 µg/mL) | –

Now from value to compound, other results behind:

Row | MIC [2] [µM] | SMILES | IC50 [1] [µM]
16 | 2.39 (≈ 3.11 µg/mL) | CC[C@H](C)[C@H](NC(=O)[C@H](CCCN=C(N)N)NC(=O)[C@H](CCCCN)NC(=O)[C@H](Cc1c[nH]cn1)NC(=O)[C@@H](Cc1ccccc1)NC(=O)[C@@H](NC(=O)[C@@H](Cc1ccccc1)NC(=O)[C@@H](Cc1c[nH]c2ccccc12)NC(=O)[C@@H](N)CCCN=C(N)N)[C@@H](C)CC)C(N)=O | 4.64
17 | 2.45 (≈ 3.06 µg/mL) | CC[C@H](C)[C@H](NC(=O)[C@@H](Cc1ccccc1)NC(=O)[C@@H](Cc1c[nH]c2ccccc12)NC(=O)[C@@H](N)CCCN=C(N)N)C(=O)N[C@H](Cc1ccccc1)C(=O)N[C@@H](Cc1c[nH]cn1)C(=O)N[C@@H](CCCCN)C(=O)N[C@@H](CCCCN)C(=O)N[C@@H](CO)C(N)=O | 1.77
18 | 2.48 (≈ 3.05 µg/mL) | CC[C@H](C)[C@H](NC(=O)[C@@H](Cc1ccccc1)NC(=O)[C@@H](Cc1c[nH]c2ccccc12)NC(=O)[C@@H](N)CCCN=C(N)N)C(=O)N[C@H](Cc1ccccc1)C(=O)N[C@@H](Cc1c[nH]cn1)C(=O)N[C@@H](CCCCN)C(=O)N[C@@H](CCCCN)C(=O)N[C@@H](C)C(N)=O [listing 2 of 2 here] | –
19 | 2.32 (≈ 3.05 µg/mL) | CC[C@H](C)[C@H](NC(=O)[C@@H](Cc1ccccc1)NC(=O)[C@@H](Cc1c[nH]c2ccccc12)NC(=O)[C@@H](N)CCCN=C(N)N)C(=O)N[C@H](Cc1ccccc1)C(=O)N[C@@H](Cc1c[nH]cn1)C(=O)N[C@@H](CCCCN)C(=O)N[C@@H](CCCCN)C(=O)N[C@@H](CCCN=C(N)N)C(N)=O | 1.64
20 | 2.37 (≈ 3.06 µg/mL) | CC[C@H](C)[C@H](NC(=O)[C@@H](Cc1ccccc1)NC(=O)[C@@H](Cc1c[nH]c2ccccc12)NC(=O)[C@@H](N)CCCN=C(N)N)C(=O)N[C@H](Cc1ccccc1)C(=O)N[C@@H](Cc1c[nH]cn1)C(=O)N[C@@H](CCCCN)C(=O)N[C@@H](CCCCN)C(=O)N[C@@H](CCC(=O)O)C(N)=O [listing 2 of 2 here] | –
21 | 4.64 (≈ 6.24 µg/mL) | CC[C@H](C)[C@H](NC(=O)[C@@H](Cc1ccccc1)NC(=O)[C@@H](Cc1c[nH]c2ccccc12)NC(=O)[C@@H](N)CCCN=C(N)N)C(=O)N[C@H](Cc1ccccc1)C(=O)N[C@@H](Cc1c[nH]cn1)C(=O)N[C@@H](CCCCN)C(=O)N[C@@H](CCCN=C(N)N)C(=O)N[C@@H](CCCN=C(N)N)C(N)=O | 4.15
22 | 4.74 (≈ 6.25 µg/mL) | CC[C@H](C)[C@H](NC(=O)[C@@H](Cc1ccccc1)NC(=O)[C@@H](Cc1c[nH]c2ccccc12)NC(=O)[C@@H](N)CCCN=C(N)N)C(=O)N[C@H](Cc1ccccc1)C(=O)N[C@@H](Cc1c[nH]cn1)C(=O)N[C@@H](CCCCN)C(=O)N[C@@H](CCCN=C(N)N)C(=O)N[C@@H](CCC(=O)O)C(N)=O | 4.23
23 | 2.4 (≈ 3.06 µg/mL) | CC[C@H](C)[C@H](NC(=O)[C@@H](Cc1ccccc1)NC(=O)[C@@H](Cc1c[nH]c2ccccc12)NC(=O)[C@@H](N)CCCN=C(N)N)C(=O)N[C@H](Cc1ccccc1)C(=O)N[C@@H](Cc1c[nH]cn1)C(=O)N[C@@H](CCCCN)C(=O)N[C@@H](CCCCN)C(=O)N[C@@H](CC(N)=O)C(N)=O | 3.35
24 | 2.5 (≈ 3.11 µg/mL) | CC[C@H](C)[C@H](NC(=O)[C@@H](Cc1ccccc1)NC(=O)[C@@H](Cc1c[nH]c2ccccc12)NC(=O)[C@@H](N)CCCN=C(N)N)C(=O)N[C@H](Cc1ccccc1)C(=O)N[C@@H](Cc1c[nH]cn1)C(=O)N[C@@H](CCCCN)C(=O)N[C@@H](CCCN=C(N)N)C(=O)NCC(N)=O | 4.48
25 | 4.79 (≈ 6.24 µg/mL) | CC[C@H](C)[C@H](NC(=O)[C@@H](Cc1ccccc1)NC(=O)[C@@H](Cc1c[nH]c2ccccc12)NC(=O)[C@@H](N)CCCN=C(N)N)C(=O)N[C@H](Cc1ccccc1)C(=O)N[C@@H](Cc1c[nH]cn1)C(=O)N[C@@H](CCCCN)C(=O)N[C@@H](CCCN=C(N)N)C(=O)N[C@@H](CC(=O)O)C(N)=O | 7.71
26 | 4.8 (≈ 6.12 µg/mL) | CC[C@H](C)[C@H](NC(=O)[C@@H](Cc1ccccc1)NC(=O)[C@@H](Cc1c[nH]c2ccccc12)NC(=O)[C@@H](N)CCCN=C(N)N)C(=O)N[C@H](Cc1ccccc1)C(=O)N[C@@H](Cc1c[nH]cn1)C(=O)N[C@@H](CCCCN)C(=O)N[C@@H](CCCCN)C(=O)N[C@@H](CC(=O)O)C(N)=O [listing 2 of 2 here] | –
27 | 4.85 (≈ 6.24 µg/mL) | CC[C@H](C)[C@H](NC(=O)[C@@H](Cc1ccccc1)NC(=O)[C@@H](Cc1c[nH]c2ccccc12)NC(=O)[C@@H](N)CCCN=C(N)N)C(=O)N[C@H](Cc1ccccc1)C(=O)N[C@@H](Cc1c[nH]cn1)C(=O)N[C@@H](CCCCN)C(=O)N[C@@H](CCCN=C(N)N)C(=O)N[C@H](C(N)=O)C(C)C | 4.88
28 | 2.36 (≈ 3.11 µg/mL) | CC[C@H](C)[C@H](NC(=O)[C@@H](Cc1ccccc1)NC(=O)[C@@H](Cc1c[nH]c2ccccc12)NC(=O)[C@@H](N)CCCN=C(N)N)C(=O)N[C@H](Cc1ccccc1)C(=O)N[C@@H](Cc1c[nH]cn1)C(=O)N[C@@H](CCCCN)C(=O)N[C@@H](CCCN=C(N)N)C(=O)N[C@@H](CCSC)C(N)=O | 4.62
